Measurements as given in paper PMC6277434, “Discovery of a potent HMG-CoA reductase degrader that eliminates statin-induced reductase accumulation and lowers cholesterol” (Nature Communications, 2018).

Assays:
HMGCR [1] = target: T1, HMGCR (Cricetulus griseus, UniProt P00347); assay: Immunoblotting of endogenous HMGCR protein in CHO-7 (or CHG) cells; assay type: cell-based, Chinese hamster; conditions: for endogenous HMGCR protein (immunoblot), mean: DMSO = 100; for HMGCR protein fold change: untreated = 1
T1 construct: endogenous in cells; host or cells: CHO-7, CHG, SRD-13A, SRD-15
T1 sequence (P00347 1-887): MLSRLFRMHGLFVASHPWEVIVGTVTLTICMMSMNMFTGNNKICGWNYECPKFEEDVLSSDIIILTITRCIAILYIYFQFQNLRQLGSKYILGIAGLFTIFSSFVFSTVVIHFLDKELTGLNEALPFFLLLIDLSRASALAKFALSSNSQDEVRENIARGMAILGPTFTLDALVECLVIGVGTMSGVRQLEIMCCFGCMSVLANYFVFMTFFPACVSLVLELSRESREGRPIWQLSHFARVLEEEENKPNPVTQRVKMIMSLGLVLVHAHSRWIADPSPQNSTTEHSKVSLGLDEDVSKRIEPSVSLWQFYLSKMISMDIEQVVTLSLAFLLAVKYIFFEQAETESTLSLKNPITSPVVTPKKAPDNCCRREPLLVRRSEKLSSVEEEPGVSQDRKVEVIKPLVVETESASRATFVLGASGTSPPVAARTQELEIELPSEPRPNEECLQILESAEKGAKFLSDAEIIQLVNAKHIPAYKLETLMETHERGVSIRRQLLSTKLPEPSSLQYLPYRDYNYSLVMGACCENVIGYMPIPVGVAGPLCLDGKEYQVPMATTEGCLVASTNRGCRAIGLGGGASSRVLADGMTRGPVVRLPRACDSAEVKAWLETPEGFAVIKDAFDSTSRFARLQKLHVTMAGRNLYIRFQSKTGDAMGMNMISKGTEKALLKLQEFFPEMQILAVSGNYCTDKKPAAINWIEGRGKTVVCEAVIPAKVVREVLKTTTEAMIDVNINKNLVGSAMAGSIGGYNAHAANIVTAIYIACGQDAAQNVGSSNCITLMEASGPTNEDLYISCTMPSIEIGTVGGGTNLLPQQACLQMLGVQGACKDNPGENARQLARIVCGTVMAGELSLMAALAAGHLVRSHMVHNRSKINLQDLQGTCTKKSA
Protocol: CHO-7 (Chinese hamster ovary cell, a clone of CHO-K1 cell line selected for growth in LPDS) and Huh7 (a human hepatocellular carcinoma cell line), SRD-13A (a Scap-deficient CHO-7 cell line) and SRD-15 (an Insig-1 and Insig-2-deficient CHO-7 cell line) were generous gifts from Russell Debose-Boyd at UT Southwestern Medical Center, USA. All cells were grown in a monolayer at 37 °C with 5% CO2. Huh7 cells were maintained in medium A supplemented with 10% FBS. CHO-7 and SRD-15 cells were maintained in medium B supplemented with 5% FBS. SRD-13A cells were maintained in medium B with 5% FBS, 5 μg ml^−1 cholesterol, 1 mM sodium mevalonate, 10 μM sodium oleate. No cell lines used in this study were found in the database of commonly misidentified cell lines that is maintained by ICLAC and NCBI Biosample. The cell lines have not been authenticated recently. No test for mycoplasma contamination was performed.
Cells were harvested and homogenized in the RIPA buffer (50 mM Tris-HCl, pH 8.0, 150 mM NaCl, 2 mM MgCl2, 1.5% NP-40, 0.1% SDS, and 0.5% sodium deoxycholate) supplemented with protease cocktail inhibitor, 10 μM MG-132, 10 μg ml^−1 leupeptin and 1 mM phenylmethylsulfonyl fluoride. The protein concentrations of lysates were determined using BCA method (Beyotime). Samples were mixed with the membrane protein solubilization buffer (62.5 mM Tris-HCl, pH 6.8, 15% SDS, 8 M urea, 10% glycerol, and 100 mM DTT) plus the 4× loading buffer (150 mM Tris-HCl, pH 6.8, 12% SDS, 30% glycerol, 6% 2-mercaptoethanol, and 0.02% bromophenol blue) and incubated for 30 min at 37 °C. Proteins were resolved by SDS-PAGE and transferred to nitrocellulose membranes (GE Healthcare). Immnoblots were blocked with 5% non-fat milk in TBS containing 0.075% Tween-20 (TBST) and probed with indicated antibodies overnight at 4 °C. After washing in TBST for five times, blots were incubated with HRP-conjugated secondary antibodies for 2 h at room temperature. Immunoreactivity was developed with Clarity Western ECL chemiluminescent substrates (170–5061, Bio-Rad). Western blot images were captured by Amersham Imager 600 (GE Healthcare), and integrated optical intensities of each band were quantified by Image-Pro Plus 6 software (Media Cybernetics). Uncropped blots are shown in Supplementary Figs. 9–13.

[2] = Body weight and food intake of treated mice; assay type: in vivo
hERG potassium channel = hERG potassium channel (Homo sapiens, UniProt Q12809); assay: hERG electrophysiology patch-clamp assay (CHO-hERG cells, QPatch); conditions: even at 40 μM
HMGCR [3] = target: T1, HMGCR; assay: HMGCR ubiquitination assay in CHO-7 cells; assay type: cell-based, Chinese hamster
Protocol: To detect endogenous HMGCR ubiquitination, CHO-7 cells were treated as described in figure legends. Two 10-cm dishes of cells were harvested and lysed in 600 μl of immunoprecipitation buffer (1× PBS, 1% Triton X-100, 5 mM EDTA, 5 mM EGTA) supplemented with protease inhibitor cocktail, 0.1 mM Leupeptin, 10 μM MG-132, and 10mM N-ethylmaleimide. Lysates were pre-cleared with 3 μg of normal rabbit IgG (D110502, Sangon) and 40 μl of protein A/G plus-agarose (sc-2003, Santa Cruz Biotechnology) for 1 h at 4 °C, followed by immunoprecipitation with 10 μg of rabbit polyclonal anti-HMGCR and 100 μl of protein A/G plus-agarose overnight at 4 °C. After washing with immunoprecipitation buffer containing protease inhibitor cocktail for three times, immunoprecipitates were eluted with 2× loading buffer (75 mM Tris-HCl, pH 6.8, 50 mM NaCl, 6% SDS, 15% glycerol, and 0.02% bromophenol blue) at 95 °C for 10 min. Supernatants were then mixed with equal volume of membrane protein solubilization buffer and incubated at 37 °C for 30 min. Samples were finally subjected to immunoblotting as described above.
To assay for the ubiquitination of overexpressed HMGCR protein, cells were first transfected with indicated plasmids. A similar protocol was employed except that lysates were immunoprecipitated with 40 μl of anti-Flag M2 affinity gel (A2220, Sigma-Aldrich).

[4] = C57BL/6J mice, MFMC diet, 6 weeks

Chain of hERG potassium channel (Q12809 whole entry): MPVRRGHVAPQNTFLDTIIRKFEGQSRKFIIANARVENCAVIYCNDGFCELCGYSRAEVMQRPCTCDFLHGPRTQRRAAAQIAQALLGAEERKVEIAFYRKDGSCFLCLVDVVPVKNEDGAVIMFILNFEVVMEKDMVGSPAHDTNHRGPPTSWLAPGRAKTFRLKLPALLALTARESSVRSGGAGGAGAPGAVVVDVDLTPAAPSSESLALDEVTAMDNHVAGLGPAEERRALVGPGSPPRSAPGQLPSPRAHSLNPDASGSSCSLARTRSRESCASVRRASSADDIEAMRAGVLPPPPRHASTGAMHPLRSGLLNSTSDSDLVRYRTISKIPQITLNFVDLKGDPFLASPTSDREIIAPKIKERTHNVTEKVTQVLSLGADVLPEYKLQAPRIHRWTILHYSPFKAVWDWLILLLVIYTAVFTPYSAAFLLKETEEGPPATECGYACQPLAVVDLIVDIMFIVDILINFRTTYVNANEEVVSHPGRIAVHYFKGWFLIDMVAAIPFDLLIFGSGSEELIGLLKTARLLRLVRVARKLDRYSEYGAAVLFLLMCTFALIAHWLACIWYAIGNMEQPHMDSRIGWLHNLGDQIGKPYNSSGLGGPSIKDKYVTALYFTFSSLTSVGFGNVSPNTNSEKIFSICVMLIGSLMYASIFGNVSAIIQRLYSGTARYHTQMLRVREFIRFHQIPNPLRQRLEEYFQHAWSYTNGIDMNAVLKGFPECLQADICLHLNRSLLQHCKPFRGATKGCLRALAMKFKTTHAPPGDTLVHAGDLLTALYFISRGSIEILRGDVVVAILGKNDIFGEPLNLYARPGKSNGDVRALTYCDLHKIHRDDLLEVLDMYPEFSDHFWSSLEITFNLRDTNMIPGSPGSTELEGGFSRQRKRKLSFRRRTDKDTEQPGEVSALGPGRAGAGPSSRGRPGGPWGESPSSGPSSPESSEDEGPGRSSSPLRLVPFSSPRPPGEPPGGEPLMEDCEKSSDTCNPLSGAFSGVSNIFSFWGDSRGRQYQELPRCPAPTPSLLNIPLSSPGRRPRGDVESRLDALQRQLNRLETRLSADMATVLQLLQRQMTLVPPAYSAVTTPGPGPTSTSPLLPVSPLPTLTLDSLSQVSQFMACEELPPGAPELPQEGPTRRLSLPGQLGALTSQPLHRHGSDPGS

C=CCC(O)(CC=C)CCCC(C)C1CCC2C3C(O)C=C4C(C)(C)C(O)CCC4(C)C3CCC12C (stereo not shown) [Cmpd 81]
endogenous HMGCR protein (immunoblot), mean (HMGCR [1]; CHO-7, 0.01 uM, 16 h): 96.5896 | endogenous HMGCR protein (immunoblot), mean (HMGCR [1]; CHO-7, 0.03 uM, 16 h): 105.12 | endogenous HMGCR protein (immunoblot), mean (HMGCR [1]; CHO-7, 0.1 uM, 16 h): 84.2505 | endogenous HMGCR protein (immunoblot), mean (HMGCR [1]; CHO-7, 0.3 uM, 16 h): 66.4121 | endogenous HMGCR protein (immunoblot), mean (HMGCR [1]; CHO-7, 1 uM, 16 h): 9.931 | endogenous HMGCR protein (immunoblot), mean (HMGCR [1]; CHO-7, 3 uM, 16 h): 3.826 | HMGCR degradation induced by Cmpd 81 on addition of proteasome inhibitor MG-132 (HMGCR [1]; CHO-7, 10 μM MG-132, 5 h): completely blocked | endogenous HMGCR protein (immunoblot), mean (HMGCR [1]; CHO-7, 10 uM, 16 h): 1.121 | endogenous HMGCR protein (immunoblot), mean (HMGCR [1]; CHO-7, 20 uM, 16 h): 1.6114 | HMGCR protein fold change (HMGCR [1]; CHO-7, Cmpd 81 1 μM with lovastatin 1 μM): 5.141 | HMGCR protein fold change (HMGCR [1]; CHO-7, Cmpd 81 1 μM, without lovastatin): 0.3231 | HMGCR protein fold change (HMGCR [1]; CHO-7, Cmpd 81 3 μM with lovastatin 1 μM): 1.706 | HMGCR protein fold change (HMGCR [1]; CHO-7, Cmpd 81 3 μM, without lovastatin): 0.1204 | HMGCR protein fold change (HMGCR [1]; CHO-7, Cmpd 81 10 μM with lovastatin 1 μM): 0.399 | reduction in HMGCR (HMGCR [1]; CHO-7 cells, 1 μM, 16 h): more than 80% | EC50 (HMGCR [1]; CHO-7 cells, 16 h, read-out: EC50 to decrease endogenous HMGCR (dose–response immunoblotting)): 390 nM | HMGCR protein induced by simvastatin, pravastatin, fluvastatin, atorvastatin and rosuvastatin (HMGCR [1]; cultured cells): similarly reduced | body weight and food intake [2, 4]: remained comparable | body weight and food intake ([2]; Ldlr−/− mice, WD, up to 20 weeks): did not affect | inhibition of hERG peak tail currents (hERG potassium channel): no inhibition effect | ubiquitination of endogenous HMGCR (HMGCR [3]; CHO-7, with 10 μM MG-132, 3 h): dose-dependent increase | ubiquitination of transfected HMGCR (HMGCR [3]; cells co-expressing wild-type HMGCR and Insig-1): markedly increase

CC[C@H](C)C(=O)O[C@H]1C[C@@H](C)C=C2C=C[C@H](C)[C@H](CC[C@@H]3C[C@@H](O)CC(=O)O3)[C@H]21 [Lovastatin, lovastatin]
HMGCR protein level, mean (HMGCR [1]; CHO-7, lovastatin 0.001 uM, 16 h, DMSO = 1): 1.706 | HMGCR protein level, mean (HMGCR [1]; CHO-7, lovastatin 0.003 uM, 16 h, DMSO = 1): 2.872 | HMGCR protein level, mean (HMGCR [1]; CHO-7, lovastatin 0.01 uM, 16 h, DMSO = 1): 6.395 | HMGCR protein level, mean (HMGCR [1]; CHO-7, lovastatin 0.03 uM, 16 h, DMSO = 1): 10.2955 | HMGCR protein level, mean (HMGCR [1]; CHO-7, lovastatin 0.1 uM, 16 h, DMSO = 1): 11.6269 | HMGCR protein level, mean (HMGCR [1]; CHO-7, lovastatin 0.3 uM, 16 h, DMSO = 1): 13.3691 | HMGCR protein fold change (HMGCR [1]; CHO-7, lovastatin 1 μM alone): 16.2295 | HMGCR protein level, mean (HMGCR [1]; CHO-7, lovastatin 1 uM, 16 h, DMSO = 1): 14.123 | HMGCR protein level, mean (HMGCR [1]; CHO-7, lovastatin 3 uM, 16 h, DMSO = 1): 14.7817 | HMGCR protein level, mean (HMGCR [1]; CHO-7, lovastatin 10 uM, 16 h, DMSO = 1): 14.2587 | increase of HMGCR protein (maximum increment) (HMGCR [1]; CHO-7 cells, statin 16 h, DMSO = 1): ~ 15 fold | body weight and food intake [2, 4]: remained comparable
